Measured values from ChEMBL document CHEMBL1131976, “Syntheses of novel antitumor dihydroxanthone derivatives with inhibitory activity against DNA topoisomerase II” (Bioorg Med Chem Lett, 1999).

Assays:
K562 = experiment: In vitro cytotoxic activity against human cancer cell line K562 by using MTT assay; assay type: functional, cell-based
P388 = experiment: In vitro cytotoxic activity against murine cancer cell line P388 by using MTT assay; assay type: functional, cell-based; conditions: Mus musculus
HCT-116 [1] = experiment: In vitro cytotoxic activity against human cancer cell line HCT116 by using MTT assay; assay type: functional, cell-based
DNA topoisomerase 2 = biological target: T1, DNA topoisomerase 2 (Drosophila melanogaster, UniProt P15348); experiment: In vitro inhibitory activity against topoisomerase II (Topo II) by using decatenation assay
T1 sequence (P15348 whole entry): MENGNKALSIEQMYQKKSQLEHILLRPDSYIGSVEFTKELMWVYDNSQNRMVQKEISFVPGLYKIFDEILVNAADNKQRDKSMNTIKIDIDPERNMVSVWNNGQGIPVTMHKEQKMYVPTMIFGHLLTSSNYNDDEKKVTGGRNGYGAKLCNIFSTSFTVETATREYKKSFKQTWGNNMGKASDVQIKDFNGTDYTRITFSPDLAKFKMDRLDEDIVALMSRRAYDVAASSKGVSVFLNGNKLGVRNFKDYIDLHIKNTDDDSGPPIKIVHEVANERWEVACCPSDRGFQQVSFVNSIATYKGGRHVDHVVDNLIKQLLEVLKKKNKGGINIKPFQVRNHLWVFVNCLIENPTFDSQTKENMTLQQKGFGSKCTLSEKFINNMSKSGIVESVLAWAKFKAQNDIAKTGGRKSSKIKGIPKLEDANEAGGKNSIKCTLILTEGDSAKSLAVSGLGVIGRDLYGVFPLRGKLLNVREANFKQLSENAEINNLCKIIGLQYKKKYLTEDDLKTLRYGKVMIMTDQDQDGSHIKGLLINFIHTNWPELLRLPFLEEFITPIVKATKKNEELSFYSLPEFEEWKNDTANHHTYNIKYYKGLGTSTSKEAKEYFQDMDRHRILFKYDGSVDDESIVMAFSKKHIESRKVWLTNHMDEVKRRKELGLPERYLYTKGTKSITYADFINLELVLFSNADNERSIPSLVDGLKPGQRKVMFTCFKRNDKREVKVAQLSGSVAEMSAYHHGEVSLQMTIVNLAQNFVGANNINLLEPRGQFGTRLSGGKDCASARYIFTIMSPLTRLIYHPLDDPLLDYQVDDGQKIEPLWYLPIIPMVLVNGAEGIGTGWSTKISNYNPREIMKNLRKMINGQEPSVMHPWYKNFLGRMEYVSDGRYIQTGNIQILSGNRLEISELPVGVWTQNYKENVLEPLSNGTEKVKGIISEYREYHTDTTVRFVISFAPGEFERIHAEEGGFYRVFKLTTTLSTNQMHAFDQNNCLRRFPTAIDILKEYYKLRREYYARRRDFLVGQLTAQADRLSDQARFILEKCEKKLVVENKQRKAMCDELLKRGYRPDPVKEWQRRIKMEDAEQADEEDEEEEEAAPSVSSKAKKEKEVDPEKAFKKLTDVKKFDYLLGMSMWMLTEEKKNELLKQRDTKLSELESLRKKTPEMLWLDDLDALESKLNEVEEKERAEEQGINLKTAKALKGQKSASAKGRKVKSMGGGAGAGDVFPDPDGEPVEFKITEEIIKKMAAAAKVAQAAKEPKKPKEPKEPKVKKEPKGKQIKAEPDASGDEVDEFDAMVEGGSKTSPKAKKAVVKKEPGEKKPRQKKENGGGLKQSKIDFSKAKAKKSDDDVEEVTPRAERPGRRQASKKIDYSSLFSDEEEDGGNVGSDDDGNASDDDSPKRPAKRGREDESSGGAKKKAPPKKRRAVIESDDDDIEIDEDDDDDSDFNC

DNA topoisomerase 1 = biological target: T2, DNA topoisomerase 1 (Mus musculus, UniProt Q04750); experiment: In vitro inhibitory activity against topoisomerase I (Topo I) by using relaxation assay
T2 sequence (Q04750 whole entry): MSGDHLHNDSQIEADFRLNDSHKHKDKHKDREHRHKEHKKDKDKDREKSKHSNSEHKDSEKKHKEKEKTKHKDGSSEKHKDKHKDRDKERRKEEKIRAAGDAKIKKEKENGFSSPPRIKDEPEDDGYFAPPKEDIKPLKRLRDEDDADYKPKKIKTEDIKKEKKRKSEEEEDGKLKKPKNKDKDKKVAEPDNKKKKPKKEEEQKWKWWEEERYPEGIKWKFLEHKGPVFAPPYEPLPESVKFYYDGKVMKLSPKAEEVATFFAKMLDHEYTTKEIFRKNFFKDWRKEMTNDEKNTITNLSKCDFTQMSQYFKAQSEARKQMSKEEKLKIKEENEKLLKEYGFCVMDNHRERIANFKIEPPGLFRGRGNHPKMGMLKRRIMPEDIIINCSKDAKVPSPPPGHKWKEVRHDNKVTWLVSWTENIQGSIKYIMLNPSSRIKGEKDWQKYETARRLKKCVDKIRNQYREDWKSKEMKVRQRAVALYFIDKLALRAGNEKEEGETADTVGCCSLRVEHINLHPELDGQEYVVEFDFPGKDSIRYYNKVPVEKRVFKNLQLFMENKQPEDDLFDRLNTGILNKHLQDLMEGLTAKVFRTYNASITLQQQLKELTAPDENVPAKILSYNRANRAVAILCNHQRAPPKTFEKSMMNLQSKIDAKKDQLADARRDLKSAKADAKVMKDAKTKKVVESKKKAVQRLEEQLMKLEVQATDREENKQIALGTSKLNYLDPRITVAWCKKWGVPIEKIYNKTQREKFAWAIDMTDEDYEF

Mus musculus [2] = experiment: In vivo antitumor activity against Colon 26 murine tumor model at a dose of 10 mg/kg administered intravenously; assay type: functional; conditions: route intravenous
Mus musculus [3] = experiment: In vivo antitumor activity against Colon 26 murine tumor model at a dose of 20 mg/kg administered intravenously; assay type: functional; conditions: route intravenous
HCT-116 [4] = experiment: In vitro cytotoxic activity against HCT116 human cancer cell line at 40 uM; IA means Inactive; assay type: functional, cell-based

SMILES | IC50 (K562) [nM] | IC50 (P388) [nM] | IC50 (HCT-116 [1]) [nM] | IC50 (DNA topoisomerase 2) [µM] | IC50 (DNA topoisomerase 1) [µM] | Activity (Mus musculus [2]) [%] | Activity (Mus musculus [3]) [%] | IC50 (HCT-116 [4])
Cc1cc(O)c2c(c1)O[C@@]1(C(=O)N(C)C)C(=CC=C[C@H]1O)C2=O | 980 | 150 | 790 | – | – | – | – | –
Cc1cc(O)c2c(c1)O[C@@]13C(=O)N(C)[C@@H](CC=C1C2=O)[C@H]3O | 6310 | – | 19600 | > 300 | > 300 | – | – | –
Cc1cc(O)c2c(c1)O[C@@]1(C(N)=O)C(=CC=C[C@H]1O)C2=O | 590 | 52 | 330 | 29 | 63 | 42 | – | –
Cc1cc(O)c2c(c1)O[C@@]1(C(=O)N3CCCC3)C(=CC=C[C@H]1O)C2=O | 1520 | 560 | 1640 | – | – | – | – | –
Cc1cc(O)c2c(c1)O[C@@]1(C(=O)NCCO)C(=CC=C[C@H]1O)C2=O | 10600 | 2670 | 7880 | 23 | 102 | – | – | –
COC(=O)[C@]12Oc3cc(C)cc(O)c3C(=O)C1=CC=C[C@H]2O | 320 | 24 | 140 | 2.2 | 172 | – | 24 | –
Cc1cc(O)c2c(=O)c3ccccc3oc2c1 | – | – | – | – | – | – | – | Not Active
CNC(=O)[C@]12Oc3cc(C)cc(O)c3C(=O)C1=CC=C[C@H]2O | 2260 | 240 | 1130 | 132 | > 300 | – | – | –
